# Species: Rattus norvegicus
# Test: DrugMatrix - Regimen: Daily Repeat
# Type: toxicity, organism-based, Sprague-Dawley
# Parameters: regimen Daily Repeat, gender Male, age 6-8 weeks
# Conditions: in vivo, po, route oral GAVAGE, vehicle .5 % CMC; for BASOPHIL / EOSINOPHIL / ERYTHROCYTE COUNT / HEMATOCRIT / HEMOGLOBIN / LEUKOCYTE COUNT / LYMPHOCYTE / MEAN CORPUSCULAR HEMOGLOBIN / MEAN CORPUSCULAR HEMOGLOBIN CONCENTRATION / MEAN CORPUSCULAR VOLUME / MONOCYTE / NEUTROPHIL / PLATELET COUNT / ABSOLUTE BASOPHIL / ABSOLUTE EOSINOPHIL / ABSOLUTE LYMPHOCYTE / ABSOLUTE MONOCYTE / ABSOLUTE SEGMENTED NEUTROPHIL / NUCLEATED RED BLOOD CELLS: tissue Blood; for ALANINE AMINOTRANSFERASE / ALBUMIN / ALKALINE PHOSPHATASE / ASPARTATE AMINOTRANSFERASE / BLOOD UREA NITROGEN / CARBON DIOXIDE / CHLORIDE / CHOLESTEROL / CREATINE PHOSPHOKINASE / CREATININE / GLUCOSE / LACTATE DEHYDROGENASE / LIPASE / PHOSPHORUS / POTASSIUM / SODIUM / TOTAL BILIRUBIN / TOTAL PROTEIN / URIC ACID: tissue Plasma
# [1] = 0 mg/kg, 72 h, dose level Control, time 3 day
# [2] = 0 mg/kg, 120 h, dose level Control, time 5 day
# [3] = 0 mg/kg, […], dose level Control, time 14 day
# [4] = 85 mg/kg, 72 h, dose level Low, time 3 day
# [5] = 85 mg/kg, 120 h, dose level Low, time 5 day
compound,measurement,setting,value
O=[N+]([O-])c1ccccc1 [NITROBENZENE],BASOPHIL,[1],0.62%
same,EOSINOPHIL,[1],0.52%
same,ERYTHROCYTE COUNT,[1],6.33 x10E6/uL
same,HEMATOCRIT,[1],41.88%
same,HEMOGLOBIN,[1],13.52 G/DL
same,LEUKOCYTE COUNT,[1],11.39 x10E3/uL
same,LYMPHOCYTE,[1],86.18%
same,MEAN CORPUSCULAR HEMOGLOBIN,[1],21.35 pg
same,MEAN CORPUSCULAR HEMOGLOBIN CONCENTRATION,[1],32.23 G/DL
same,MEAN CORPUSCULAR VOLUME,[1],66.25 fL
same,MONOCYTE,[1],1.93%
same,NEUTROPHIL,[1],9.1%
same,PLATELET COUNT,[1],1204.5 x10E3/uL
same,ALANINE AMINOTRANSFERASE,[1],43 u/L
same,ALBUMIN,[1],4.08 G/DL
same,ALKALINE PHOSPHATASE,[1],426.33 u/L
same,ASPARTATE AMINOTRANSFERASE,[1],72.5 u/L
same,BLOOD UREA NITROGEN,[1],16.67 mg/dL
same,CARBON DIOXIDE,[1],28.33 mmol/L
same,CHLORIDE,[1],103.5 MEQ/L
same,CHOLESTEROL,[1],78.83 mg/dL
same,CREATINE PHOSPHOKINASE,[1],325.67 u/L
same,CREATININE,[1],0.48 mg/dL
same,GLUCOSE,[1],171.67 mg/dL
same,LACTATE DEHYDROGENASE,[1],107.33 u/L
same,LIPASE,[1],11.83 u/L
same,PHOSPHORUS,[1],12.55 mg/dL
same,POTASSIUM,[1],6.57 MEQ/L
same,SODIUM,[1],145.67 MEQ/L
same,TOTAL BILIRUBIN,[1],0.42 mg/dL
same,TOTAL PROTEIN,[1],6.1 G/DL
same,URIC ACID,[1],1.57 mg/dL
same,BASOPHIL,[2],0.48%
same,EOSINOPHIL,[2],0.67%
same,ERYTHROCYTE COUNT,[2],6.69 x10E6/uL
same,HEMATOCRIT,[2],44.17%
same,HEMOGLOBIN,[2],13.78 G/DL
same,LEUKOCYTE COUNT,[2],7.86 x10E3/uL
same,LYMPHOCYTE,[2],85.9%
same,MEAN CORPUSCULAR HEMOGLOBIN,[2],20.6 pg
same,MEAN CORPUSCULAR HEMOGLOBIN CONCENTRATION,[2],31.25 G/DL
same,MEAN CORPUSCULAR VOLUME,[2],65.9 fL
same,MONOCYTE,[2],3.27%
same,NEUTROPHIL,[2],8.67%
same,PLATELET COUNT,[2],1182.33 x10E3/uL
same,ALANINE AMINOTRANSFERASE,[2],37.5 u/L
same,ALBUMIN,[2],4 G/DL
same,ALKALINE PHOSPHATASE,[2],348.17 u/L
same,ASPARTATE AMINOTRANSFERASE,[2],71.67 u/L
same,BLOOD UREA NITROGEN,[2],13 mg/dL
same,CARBON DIOXIDE,[2],27 mmol/L
same,CHLORIDE,[2],104.67 MEQ/L
same,CHOLESTEROL,[2],73.33 mg/dL
same,CREATINE PHOSPHOKINASE,[2],211.33 u/L
same,CREATININE,[2],0.23 mg/dL
same,GLUCOSE,[2],155 mg/dL
same,LACTATE DEHYDROGENASE,[2],133.83 u/L
same,LIPASE,[2],11.17 u/L
same,PHOSPHORUS,[2],14.53 mg/dL
same,POTASSIUM,[2],6.65 MEQ/L
same,SODIUM,[2],148.17 MEQ/L
same,TOTAL BILIRUBIN,[2],0.28 mg/dL
same,TOTAL PROTEIN,[2],6.22 G/DL
same,URIC ACID,[2],1.57 mg/dL
same,BASOPHIL,[3],0.97%
same,EOSINOPHIL,[3],0.8%
same,ERYTHROCYTE COUNT,[3],7.02 x10E6/uL
same,HEMATOCRIT,[3],44.43%
same,HEMOGLOBIN,[3],14.58 G/DL
same,LEUKOCYTE COUNT,[3],16.49 x10E3/uL
same,LYMPHOCYTE,[3],79.03%
same,MEAN CORPUSCULAR HEMOGLOBIN,[3],20.85 pg
same,MEAN CORPUSCULAR HEMOGLOBIN CONCENTRATION,[3],32.78 G/DL
same,MEAN CORPUSCULAR VOLUME,[3],63.57 fL
same,MONOCYTE,[3],1.9%
same,NEUTROPHIL,[3],15.18%
same,PLATELET COUNT,[3],1184.33 x10E3/uL
same,ALANINE AMINOTRANSFERASE,[3],43 u/L
same,ALBUMIN,[3],4.25 G/DL
same,ALKALINE PHOSPHATASE,[3],409.67 u/L
same,ASPARTATE AMINOTRANSFERASE,[3],84.17 u/L
same,BLOOD UREA NITROGEN,[3],16 mg/dL
same,CARBON DIOXIDE,[3],35.17 mmol/L
same,CHLORIDE,[3],99.83 MEQ/L
same,CHOLESTEROL,[3],68.67 mg/dL
same,CREATINE PHOSPHOKINASE,[3],384.17 u/L
same,CREATININE,[3],0.43 mg/dL
same,GLUCOSE,[3],160 mg/dL
same,LACTATE DEHYDROGENASE,[3],115.33 u/L
same,LIPASE,[3],17.33 u/L
same,PHOSPHORUS,[3],10.68 mg/dL
same,POTASSIUM,[3],6.48 MEQ/L
same,SODIUM,[3],148.17 MEQ/L
same,TOTAL BILIRUBIN,[3],0.45 mg/dL
same,TOTAL PROTEIN,[3],6.57 G/DL
same,URIC ACID,[3],1.78 mg/dL
CCCN(CCC)C(=O)C(CCC(=O)O)NC(=O)c1ccccc1 (configuration not stated) [PROGLUMIDE],ABSOLUTE BASOPHIL,[4],0 CELLS/uL
same,ABSOLUTE EOSINOPHIL,[4],331.33 CELLS/uL
same,ABSOLUTE LYMPHOCYTE,[4],13210.67 CELLS/uL
same,ABSOLUTE MONOCYTE,[4],258 CELLS/uL
same,ABSOLUTE SEGMENTED NEUTROPHIL,[4],933.33 CELLS/uL
same,BASOPHIL,[4],0%
same,EOSINOPHIL,[4],2.33%
same,ERYTHROCYTE COUNT,[4],5.4 x10E6/uL
same,HEMATOCRIT,[4],34.93%
same,HEMOGLOBIN,[4],13.17 G/DL
same,LEUKOCYTE COUNT,[4],14.73 x10E3/uL
same,LYMPHOCYTE,[4],89.67%
same,MEAN CORPUSCULAR HEMOGLOBIN,[4],24.43 pg
same,MEAN CORPUSCULAR HEMOGLOBIN CONCENTRATION,[4],37.7 G/DL
same,MEAN CORPUSCULAR VOLUME,[4],64.7 fL
same,MONOCYTE,[4],1.67%
same,NEUTROPHIL,[4],6.33%
same,NUCLEATED RED BLOOD CELLS,[4],0.33 /100WBC
same,PLATELET COUNT,[4],1332 x10E3/uL
same,ALANINE AMINOTRANSFERASE,[4],42.67 u/L
same,ALBUMIN,[4],4.33 G/DL
same,ALKALINE PHOSPHATASE,[4],435.67 u/L
same,ASPARTATE AMINOTRANSFERASE,[4],72.33 u/L
same,BLOOD UREA NITROGEN,[4],16 mg/dL
same,CARBON DIOXIDE,[4],25.33 mmol/L
same,CHLORIDE,[4],104.33 MEQ/L
same,CHOLESTEROL,[4],60.67 mg/dL
same,CREATINE PHOSPHOKINASE,[4],288 u/L
same,CREATININE,[4],0.18 mg/dL
same,GLUCOSE,[4],161.67 mg/dL
same,LACTATE DEHYDROGENASE,[4],90.33 u/L
same,LIPASE,[4],9 u/L
same,PHOSPHORUS,[4],13.33 mg/dL
same,POTASSIUM,[4],6.41 MEQ/L
same,SODIUM,[4],144.2 MEQ/L
same,TOTAL BILIRUBIN,[4],0.23 mg/dL
same,TOTAL PROTEIN,[4],5.93 G/DL
same,URIC ACID,[4],1.67 mg/dL
same,ABSOLUTE BASOPHIL,[5],0 CELLS/uL
same,ABSOLUTE EOSINOPHIL,[5],53.33 CELLS/uL
same,ABSOLUTE LYMPHOCYTE,[5],15727.33 CELLS/uL
same,ABSOLUTE MONOCYTE,[5],190.67 CELLS/uL
same,ABSOLUTE SEGMENTED NEUTROPHIL,[5],1162 CELLS/uL
same,BASOPHIL,[5],0%
same,EOSINOPHIL,[5],0.33%
same,ERYTHROCYTE COUNT,[5],5.46 x10E6/uL
same,HEMATOCRIT,[5],35.63%
same,HEMOGLOBIN,[5],13.3 G/DL
same,LEUKOCYTE COUNT,[5],17.13 x10E3/uL
same,LYMPHOCYTE,[5],92%
same,MEAN CORPUSCULAR HEMOGLOBIN,[5],24.37 pg
same,MEAN CORPUSCULAR HEMOGLOBIN CONCENTRATION,[5],37.4 G/DL
same,MEAN CORPUSCULAR VOLUME,[5],65.13 fL
same,MONOCYTE,[5],1%
same,NEUTROPHIL,[5],6.67%
same,NUCLEATED RED BLOOD CELLS,[5],0 /100WBC
same,PLATELET COUNT,[5],1361 x10E3/uL
same,ALANINE AMINOTRANSFERASE,[5],50.67 u/L
same,ALBUMIN,[5],4 G/DL
same,ALKALINE PHOSPHATASE,[5],346.33 u/L
same,ASPARTATE AMINOTRANSFERASE,[5],79 u/L
same,BLOOD UREA NITROGEN,[5],17 mg/dL
same,CARBON DIOXIDE,[5],24.67 mmol/L
same,CHLORIDE,[5],108 MEQ/L
same,CHOLESTEROL,[5],61.67 mg/dL
same,CREATINE PHOSPHOKINASE,[5],409.67 u/L
same,CREATININE,[5],0.19 mg/dL
same,GLUCOSE,[5],187 mg/dL
same,LACTATE DEHYDROGENASE,[5],92.33 u/L
same,LIPASE,[5],8 u/L
same,PHOSPHORUS,[5],13.57 mg/dL
same,POTASSIUM,[5],5.82 MEQ/L
same,SODIUM,[5],144.9 MEQ/L
same,TOTAL BILIRUBIN,[5],0.27 mg/dL
same,TOTAL PROTEIN,[5],6.03 G/DL
same,URIC ACID,[5],1.67 mg/dL

# — ChEMBL document CHEMBL3885881, “DrugMatrix”
